# Like-named read-outs stand apart in the source and are kept apart here.
# How the values were obtained:
# [1] = molecular target: T1, rabbit liver carboxylesterase (rCE) (Oryctolagus cuniculus, UniProt P12337); assay: biochemical; type: biochemical; settings: o-NPA as substrate
# T1 sequence (P12337 19-565): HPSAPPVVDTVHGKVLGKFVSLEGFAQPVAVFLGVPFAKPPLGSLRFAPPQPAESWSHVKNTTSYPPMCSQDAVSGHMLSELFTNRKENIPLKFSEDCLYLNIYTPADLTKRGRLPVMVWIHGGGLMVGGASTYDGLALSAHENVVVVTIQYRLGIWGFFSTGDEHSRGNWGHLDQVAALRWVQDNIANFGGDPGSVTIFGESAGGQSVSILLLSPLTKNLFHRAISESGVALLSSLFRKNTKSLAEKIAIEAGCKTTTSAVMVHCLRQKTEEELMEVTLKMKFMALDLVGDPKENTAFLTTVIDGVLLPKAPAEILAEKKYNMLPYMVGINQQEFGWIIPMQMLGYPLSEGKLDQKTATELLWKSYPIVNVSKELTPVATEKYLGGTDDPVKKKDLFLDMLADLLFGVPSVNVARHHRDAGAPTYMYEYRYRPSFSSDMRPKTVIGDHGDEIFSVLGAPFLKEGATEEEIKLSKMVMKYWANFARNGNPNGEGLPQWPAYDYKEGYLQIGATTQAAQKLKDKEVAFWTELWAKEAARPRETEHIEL
# [2] = molecular target: T2, human liver carboxylesterase (hCE1) (Homo sapiens, UniProt P23141); assay: biochemical; type: biochemical; settings: o-NPA as substrate
# T2 sequence (P23141 18-567): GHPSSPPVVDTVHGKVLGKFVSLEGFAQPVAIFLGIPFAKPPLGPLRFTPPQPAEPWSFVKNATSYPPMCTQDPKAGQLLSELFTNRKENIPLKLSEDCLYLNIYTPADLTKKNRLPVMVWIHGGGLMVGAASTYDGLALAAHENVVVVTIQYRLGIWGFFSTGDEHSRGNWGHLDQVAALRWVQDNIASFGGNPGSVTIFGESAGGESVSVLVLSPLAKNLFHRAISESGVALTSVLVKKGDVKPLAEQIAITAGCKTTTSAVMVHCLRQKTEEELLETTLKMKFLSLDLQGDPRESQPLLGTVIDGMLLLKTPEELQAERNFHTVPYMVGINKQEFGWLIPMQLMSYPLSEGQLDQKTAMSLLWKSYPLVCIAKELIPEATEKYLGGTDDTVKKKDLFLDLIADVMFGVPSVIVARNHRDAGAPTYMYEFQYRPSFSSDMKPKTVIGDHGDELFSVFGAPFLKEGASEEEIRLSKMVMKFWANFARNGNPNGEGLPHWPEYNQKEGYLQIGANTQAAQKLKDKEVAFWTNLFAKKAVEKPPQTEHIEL
# [3] = molecular target: human butyrylcholinesterase (hBuChE) (Homo sapiens, UniProt P06276); assay: biochemical
# human butyrylcholinesterase (hBuChE), sequence (P06276 29-602): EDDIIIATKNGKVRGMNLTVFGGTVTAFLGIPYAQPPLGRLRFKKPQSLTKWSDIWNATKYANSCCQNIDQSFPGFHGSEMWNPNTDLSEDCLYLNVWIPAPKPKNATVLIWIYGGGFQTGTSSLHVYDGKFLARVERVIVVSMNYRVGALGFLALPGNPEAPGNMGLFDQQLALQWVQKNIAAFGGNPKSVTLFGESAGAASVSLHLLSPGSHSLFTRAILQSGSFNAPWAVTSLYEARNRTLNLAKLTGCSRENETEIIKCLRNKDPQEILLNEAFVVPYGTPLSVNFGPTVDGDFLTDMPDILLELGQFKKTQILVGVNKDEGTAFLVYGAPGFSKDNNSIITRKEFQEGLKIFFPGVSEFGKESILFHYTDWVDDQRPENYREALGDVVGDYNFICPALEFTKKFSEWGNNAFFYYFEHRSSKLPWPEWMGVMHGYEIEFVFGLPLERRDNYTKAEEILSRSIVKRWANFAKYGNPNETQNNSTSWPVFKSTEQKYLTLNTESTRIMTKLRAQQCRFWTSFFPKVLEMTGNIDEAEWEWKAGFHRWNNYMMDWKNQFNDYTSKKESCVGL
# [4] = molecular target: T3, human acetylcholinesterase (hAcChE) (Homo sapiens, UniProt P22303); assay: biochemical; type: biochemical
# T3 construct: purchased Sigma Biochemicals (St. Louis, Mo.)
# T3 sequence (P22303 32-614): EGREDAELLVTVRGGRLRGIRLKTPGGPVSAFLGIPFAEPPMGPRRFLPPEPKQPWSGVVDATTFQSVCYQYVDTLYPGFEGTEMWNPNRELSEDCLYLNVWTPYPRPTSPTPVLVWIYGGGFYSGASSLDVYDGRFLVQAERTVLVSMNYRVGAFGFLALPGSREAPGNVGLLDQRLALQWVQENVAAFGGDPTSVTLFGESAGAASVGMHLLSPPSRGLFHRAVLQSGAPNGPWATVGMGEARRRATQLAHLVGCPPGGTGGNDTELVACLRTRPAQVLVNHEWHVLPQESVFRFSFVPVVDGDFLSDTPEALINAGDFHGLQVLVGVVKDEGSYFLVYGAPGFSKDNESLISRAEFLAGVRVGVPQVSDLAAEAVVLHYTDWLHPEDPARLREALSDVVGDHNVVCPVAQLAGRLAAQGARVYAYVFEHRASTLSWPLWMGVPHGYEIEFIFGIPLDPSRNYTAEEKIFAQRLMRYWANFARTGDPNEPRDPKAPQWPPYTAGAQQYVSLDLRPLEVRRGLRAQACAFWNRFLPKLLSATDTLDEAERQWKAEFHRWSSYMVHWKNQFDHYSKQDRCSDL
# Description: Data was transferred to GraphPad Prism software, and Ki values were calculated as described in the Example above.
# [5] = test system: carboxylesterases; assay: General carboxylesterase inhibition; type: biochemical
# Description: Carboxylesterase (CE) inhibition was determined by a spectroscopic assay using o-nitrophenyl acetate (o-NPA) as a substrate. Recombinant CEs produced from expression in Spodoptera frugiperda Sf9 insect cells via baculovirus were purified from serum-free culture media for the enzyme inhibition studies. Enzymes were incubated in 200 μl of 50 mM Hepes (pH 7.4) containing 3 mM o-NPA. Conversion of the o-NPA to nitrophenol was monitored by measuring the change in the absorbance at 420 nm. Absorbance readings were taken every 15 seconds for 2 minutes, and data transferred to a computer data spreadsheet. […] The final DMSO concentration was always 1% or less. […] The above procedure was then repeated using the same assay, with inhibitor concentrations ranging from 1 nM to 100 μM. Results were then transferred to Prism software (GraphPad Software, Inc., San Diego, Calif.) and Ki values determined using sigmoidal curve fits of the data. Routinely, all analyses were performed in duplicate, and Ki values determined using at least 8 inhibitor concentrations.
# [6] = molecular target: T4, hiCE (Homo sapiens, UniProt O00748); assay: Inhibition of hiCE-mediated activation of CPT-11 (SN-38 by HPLC); type: biochemical
# T4 sequence (O00748 27-559): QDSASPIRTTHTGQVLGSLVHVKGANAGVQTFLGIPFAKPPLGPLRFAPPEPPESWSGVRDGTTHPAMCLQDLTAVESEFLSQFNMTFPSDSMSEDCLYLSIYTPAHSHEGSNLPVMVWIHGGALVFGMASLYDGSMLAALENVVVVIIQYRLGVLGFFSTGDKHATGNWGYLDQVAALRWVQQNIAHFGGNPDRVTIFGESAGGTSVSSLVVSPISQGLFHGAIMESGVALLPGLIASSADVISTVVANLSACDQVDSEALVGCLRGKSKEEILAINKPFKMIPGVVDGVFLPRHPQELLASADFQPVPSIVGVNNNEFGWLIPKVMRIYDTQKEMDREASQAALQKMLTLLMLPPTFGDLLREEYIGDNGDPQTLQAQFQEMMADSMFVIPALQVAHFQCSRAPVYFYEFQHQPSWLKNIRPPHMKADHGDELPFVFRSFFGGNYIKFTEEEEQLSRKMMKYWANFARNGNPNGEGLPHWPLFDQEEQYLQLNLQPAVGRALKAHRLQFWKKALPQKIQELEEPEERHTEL
# Description: Since the sulphonamide compounds identified herein are competitive inhibitors of hiCE, their activity is dependant upon the substrate used. To access the ability of these compounds to inhibit the hiCE-mediated activation of CPT-11, Ki values were determined using CPT-11 as the substrate.
# CPT-11 concentrations were fixed at […], and inhibitor concentrations varied from 1 nM to 10 μM. Following incubation for an hour at 37° C., the levels of SN-38 in the reaction mixture was determined by High Performance Liquid Chromatography (HPLC).
# [7] = molecular target: T5, human intestinal carboxylesterase in U373MGhiCE cells (Homo sapiens, UniProt O00748); assay: Inhibition of intracellular carboxylesterase in U373MGhiCE cells; type: cell-based
# T5 construct: expressed in transfected cells; host or cells: U373MG human glioma cells (U373MGhiCE)
# T5 sequence (O00748 27-559): T4 sequence (O00748 27-559)
# Description: To monitor the ability of the compounds to cross the cell membrane and inhibit carboxylesterase activity intracellularly, an assay using human tumor cells expressing hiCE was devised. U373MGhiCE (a human glioma cell line transfected with a plasmid expressing hiCE) were plated in T25 flasks and allowed to grow to confluency (approximately 2-5×10^5 cells). Inhibitors were then added at a final concentration of […], and incubation allowed to continue for 1 hour. At this time, the cells were washed extensively with 5 ml of complete media and 2×5 ml of Hanks balanced salt solution, and cell extracts were prepared. Carboxylesterase activity was then determined using o-NPA as a substrate.
# Table 8 sets forth the level of intracellular enzyme inhibition following incubation of human glioblastoma tumor cells expressing human intestinal carboxylesterase with 10 μM of each compound identified in Table 3.
# [8] = molecular target: T6, human small intestine carboxylesterase (hiCE) (Homo sapiens, UniProt O00748); assay: biochemical; type: biochemical; settings: for Ki / Ki (hCE1)/Ki (hiCE): o-NPA as substrate; for Ki: Table 5, read-out: Ki hiCE; for Ki (hCE1)/Ki (hiCE): selectivity ratio
# T6 sequence (O00748 27-559): T4 sequence (O00748 27-559)
# [9] = Table 6, read-out: hCE1 Ki ± SE
# [10] = acetylthiocholine as substrate, Table 6, read-out: hAcChE Ki
# [11] = butyrylthiocholine as substrate, Table 6, read-out: hBuChE Ki
# [12] = acetylthiocholine substrate, Table 5, read-out: Ki hAcChE
SMILES,"Ki ([1]; Table 6, read-out: rCE Ki ± SE) [nM]","Ki [2, 9] [nM]",Ki [3] [nM],"Ki [4, 10] [nM]",found to be general carboxylesterase inhibitors [5],other results
"O=C(C(=O)c1ccc([N+](=O)[O-])cc1)c1ccccc1 [Compound 14, 1-(4-nitrophenyl)-2-phenylethane-1,2-dione]",21.7 ± 2.5,215 ± 24,> 100000,> 100000,general carboxylesterase inhibitors,–
O=C(C(=O)c1ccc(CBr)cc1)c1ccccc1 [Compound 3],15 ± 1.6,77.6 ± 5.5,> 100000,–,general carboxylesterase inhibitors,–
"O=C(C(=O)c1cccs1)c1cccs1 [Compound 23, 1,2-dithien-2-yl-ethane-1,2-dione]",–,–,–,–,general carboxylesterase inhibitors,–
"Cc1ccc(C(=O)C(=O)c2ccccc2)cc1C [Compound 5, 1-(3,4-dimethylphenyl)-2-phenylethane-1,2-dione]",108 ± 8.8,99.1 ± 10,> 100000,> 100000,general carboxylesterase inhibitors,–
"O=C(C(=O)c1ccc(F)cc1)c1ccc(F)cc1 [Compound 16, 1,2-bis(4-fluorophenyl)ethane-1,2-dione]",–,–,–,–,general carboxylesterase inhibitors,–
"O=C(O)c1ccc(C(=O)C(=O)c2ccccc2)cc1 [Compound 1, 4-[oxo(phenyl)acetyl]benzoic acid]",64 ± 6.2,524 ± 46,–,> 100000,general carboxylesterase inhibitors,"Ki [3, 11]: > 100000 nM"
"COc1ccc(C(=O)C(=O)c2ccccc2)cc1 [Compound 6, 1-(4-methoxyphenyl)-2-2phenylethane-1,2-dione]",200 ± 60,175 ± 8.5,> 100000,> 100000,general carboxylesterase inhibitors,–
"CCOc1ccc(NS(=O)(=O)c2ccc(Cl)cc2)cc1 [Compound 52, 4-chloro-N-(4-ethoxyphenyl)benzenesulfonamide]",–,–,> 100000,–,–,"Ki ([1]; Table 5, read-out: Ki rCE): 2000 nM; Ki [6]: 3220 nM; Ki ([2]; Table 5, read-out: Ki hCE1): > 100000 nM; Ki [4, 12]: > 100000 nM; inhibition at 10 µM [7]: 9.6%; Ki [8]: 1310 nM; Ki (hCE1)/Ki (hiCE) [8]: >75"
"Cc1ccc(C(=O)C(=O)c2ccc(C)cc2)cc1 [Compound 17, 1,2-bis(4-methylphenyl)ethane-1,2-dione]",49.6 ± 6.8,532 ± 35,–,> 100000,general carboxylesterase inhibitors,"Ki [3, 11]: > 100000 nM"
"Cc1ccc(C(=O)C(=O)c2ccccc2)cc1[N+](=O)[O-] [Compound 7, 1-(4-methyl-3-nitrophenyl)-2-phenylethane-1,2-dione]",11.9 ± 1.1,295 ± 9.6,> 100000,> 100000,general carboxylesterase inhibitors,–
"O=S(=O)(Nc1ccc(NS(=O)(=O)c2ccc(Cl)cc2)cc1)c1ccc(Cl)cc1 [Compound 45, 4-chloro-N-(4-{[(4-chlorophenyl)sulfonyl]amino}phenyl) benzenesulfonamide]",–,–,> 100000,–,–,"Ki ([1]; Table 5, read-out: Ki rCE): 1200 nM; Ki [6]: 141 ± 64 nM; Ki ([2]; Table 5, read-out: Ki hCE1): 13700 nM; Ki [4, 12]: > 100000 nM; inhibition at 10 µM [7]: 7.5%; Ki [8]: 53.3 ± 5.5 nM; Ki (hCE1)/Ki (hiCE) [8]: >250"
"O=C(C(=O)c1cc(F)cc(F)c1)c1cc(F)cc(F)c1 [Compound 19, 1,2-bis(3,5-difluorophenyl)ethane-1,2-dione]",–,–,–,–,general carboxylesterase inhibitors,–
"O=S(=O)(Nc1c(Cl)c(Cl)c(NS(=O)(=O)c2ccccc2)c(Cl)c1Cl)c1ccccc1 [Compound 44, N-{2,3,5,6-tetrachloro-4-[(phenylsulfonyl)amino]phenyl}benzene sulfonamide]",–,–,> 100000,–,–,"Ki ([1]; Table 5, read-out: Ki rCE): > 100000 nM; Ki ([6]; CPT-11 as substrate (100 μm), 1 hour at 37° C., read-out: Ki hiCE): > 100000 nM; Ki ([2]; Table 5, read-out: Ki hCE1): > 100000 nM; Ki [4, 12]: > 100000 nM; inhibition at 10 µM [7]: 0.6%; change in apparent Vmax of hiCE ([8]; 149 nM or 447 nM inhibitor): no change; Ki [8]: 451 ± 39 nM; Ki (hCE1)/Ki (hiCE) [8]: >220"
"O=C(C(=O)c1cc(F)c(F)c(F)c1)c1cc(F)c(F)c(F)c1 [Compound 20, 1,2-bis(3,4,5-trifluorophenyl)ethane-1,2-dione]",–,–,–,–,general carboxylesterase inhibitors,–
"Cc1ccc(C(=O)C(=O)c2ccc(Cl)cc2)cc1 [Compound 22, 1-(4-chlorophenyl)-2-(4-methylphenyl)ethane-1,2-dione]",16.2 ± 1.7,160 ± 32,> 100000,–,general carboxylesterase inhibitors,–
"Cc1cc([N+](=O)[O-])ccc1NC(=O)Nc1ccccc1 [Compound 56, N-(2-methyl-4-nitrophenyl)-N′-phenylurea]",–,–,–,–,–,"Ki ([2]; Table 5, read-out: Ki hCE1): > 100000 nM; Ki [4, 12]: > 100000 nM; inhibition at 10 µM [7]: 0%; Ki [8]: 1520 nM"

# Reference: patent US7973034B2, “Amide, aryl sulfonamide, aryl urea, and α,β-diketone derived carboxylesterase inhibitors, and their methods of use” (priority 2003, dated 2011)
